{"source": "PubChem BioAssay AID492957", "about": "(The Scripps Research Institute Molecular Screening Center, 2010)", "test_system": "E. coli V66 + T4 gene 2 mutant phage, OD growth", "test": "RecBCD inhibition via phage-restricted bacterial growth – absorbance, V66 E. coli, mutant T4 phage, counter-screen for AddAB inhibitor project, dose response (AID 492957)", "note": "Active and inactive are the calls of the source.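 How the source made its calls: active means IC50 at or below 10 µM; inactive means IC50 above 10 µM.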"}
{"smiles": "O=C(NCc1cccnc1)c1ccc([N+](=O)[O-])o1", "values": [{"measurement": "IC50", "value": "86.4 µM (inactive)"}]}
